Experimental findings from paper PMC11748689, “Pharmacological and structural understanding of the Trypanosoma cruzi proteasome provides key insights for developing site-specific inhibitors” (The Journal of Biological Chemistry, 2024) are described below.

Each structure is given as a SMILES string. A value given as a limit tells only on which side of the number the result lay.

Holding throughout (type): biochemical
Experiment [1] addresses recombinant WT T. cruzi proteasome (chymotrypsin-like activity, β5) (Trypanosoma cruzi, UniProt V5BU39+V5C017). The experiment in a line: biochemical. The note with it: for maximum % inhibition plateau, Chymotrypsin Assay, Wild-type: mean ± SD, N = 3 (N = 2 for DDD02091966), (a) mid-point plateau from biphasic curve fits. As to the method: (§1) Chymotrypsin-, trypsin-, and caspase-like activity assays were performed using a commercially available Proteasome-Glo 3-substrate system assay kit (catalog number G8532) (Promega Corporation) according to the manufacturers protocols and as previously described ([24]).
(§2) Prior to running assays, Proteasome-Glo buffer was used to reconstitute the luciferin detection reagent (containing a recombinant thermostable luciferase enzyme). The resuspended luciferin detection reagent was then mixed with Proteasome-Glo chymotrypsin-, trypsin- or caspase-like substrates (either 40 μM suc-Leu-Leu-Val-Tyr-aminoluciferin, 30 μM Z-Leu-Arg-Arg-aminoluciferin (Z is benzyloxycarbonyl) or 40 μM Z-Nle-Pro-Nle-Asp-aminoluciferin respectively (these concentrations represent 2x final assay concentrations)). These substrate mixtures were allowed to incubate at room temperature for 60 min prior to use to allow the removal of any contaminating free aminoluciferin.
(§3) Proteasome assays were carried out using 384-well, white, low-volume plates (catalog number 784904) (Greiner Bio-One) at room temperature (∼23 °C) in 8 μl reaction volumes. When activity checks were to be run in the presence or absence of a fixed concentration of proteasome inhibitor, 80 nL of the inhibitor (at a concentration 100x the required final assay concentration), or 80 nL dimethylsulfoxide (DMSO), were dispensed into assay plates using an Echo 550 acoustic dispenser (Labcyte).
(§4) A 1 in 2 dilution series of the various T. cruzi proteasome samples (native, recombinant WT, β4^R mutant, and Δβ1Δβ2 mutant) were produced in assay buffer (50 mM Tris–HCl, pH 7.5, 10 mM sucrose, 5 mM MgCl2, 1 mM DTT, 2 mM ATP, 150 mM NaCl, 1 mM EDTA, and 0.05 mg/ml bovine serum albumin). Subsequently, 4 μl of the various concentrations of diluted proteasome were added to assay plates using an electronic multichannel pipette (Integra Biosciences Ltd). When kinetic read activity checks were performed (Fig. 2), proteasome final assay concentrations used were 115 μg/ml, 115 μg/ml, and 230 μg/ml native proteasome (in the chymotrypsin, trypsin, and caspase assays, respectively), and 4.1 μg/ml, 3.4 μg/ml, or 1.4 μg/ml recombinant WT proteasome (in the chymotrypsin, trypsin, and caspase assays, respectively). When activity checks were to be run in the presence or absence of a proteasome inhibitor plates containing inhibitor or DMSO control were incubated with the relevant proteasome sample for 60 min at room temperature (this step was not included in activity check experiments where compounds were not used).
(§5) Following the 60 min incubation of proteasome and compound (if required), assays were initiated with the addition of 4 μl of substrate mix (containing substrate and the luciferin detection reagent) using an electronic multichannel pipette. Final assay concentrations of substrates used were either 20 μM Suc-Leu-Leu-Val-Tyr-aminoluciferin, 15 μM Z-Leu-Arg-Arg-aminoluciferin, or 20 μM Z-Nle-Pro-Nle-Asp-aminoluciferin for chymotrypsin-, trypsin- or caspase-like activity respectively.
(§6) Luminescence was read either kinetically or as an endpoint read using an EnVision 2102 Multilabel Reader (PerkinElmer, Inc) with 0.2 s per well reading time. When kinetic assays were run, luminescence was read every 5 min for 90 min. Endpoint assays were run for 60 min before luminescence was read. All data processing and linear fit analyses were performed using Microsoft Excel for Microsoft 365 software (Redmond, Washington; https://www.microsoft.com/).
(§7) When proteasome inhibitors were to be screened in the chymotrypsin, trypsin, and caspase assays, test compounds were dispensed into assay wells using an ECHO 550 acoustic dispenser (Labcyte) (final DMSO concentration 1%). Compounds were tested in either a 10-point concentration series (30 μM top final assay concentration, 1 in 3 dilution series) or a 12-point concentration series (30 μM top final assay concentration, 1 in 2.5 dilution series).

For experiment [2], the target named is recombinant Δβ1Δβ2 mutant T. cruzi proteasome (chymotrypsin-like activity) (Trypanosoma cruzi, UniProt V5BU39+V5C017). The experiment in a line: biochemical. As to the method: (§8) Point mutations were created in individual subunits using overlapping PCR from the original templates using Polh and Tn7L primers outside the genes and suitable internal primers to introduce selected mutations. For Δβ1Δβ2, β1 Thr 55, and β2 Thr 67 were both mutated to Ala, the β4^R mutant was produced by mutating Phe 24 and Ile 29 to Leu and Met respectively in β4 subunit.
as §1, §2, §3, §4, §5, §6

Experiment [3] has as its target recombinant β4^R mutant T. cruzi proteasome (chymotrypsin-like activity) (Trypanosoma cruzi, UniProt V5BU39+V5C017, F24L/I29M). Description: biochemical. The procedure: as §8, §1, §2, §3, §4, §5, §6
The target of experiment [4] is native T. cruzi proteasome (trypsin-like activity, β2) (Trypanosoma cruzi, UniProt V5BCU3). Description: Trypsin-like activity assay (Proteasome-Glo), native T. cruzi proteasome. The note with it: mean ± SD, N = 3; read-out: pIC50, Trypsin Assay, Native (converted). The procedure: as §1, §2, §7
(§9) Proteasome assays were then performed as described above using Promega Proteasome-Glo 3-substrate system assay kit. […] Diluted proteasome (4 μl) was added to assay plates using an electronic multichannel pipette (Integra Biosciences Ltd) and the proteasome incubated with compound for 60 min at room temperature.
(§10) Following the 60 min incubation of proteasome and compounds, assays were initiated with the addition of 4 μl of a substrate mix (containing substrate and the luciferin detection reagent) using an electronic multichannel pipette. Final assay concentrations of substrates used were either 20 μM Suc-Leu-Leu-Val-Tyr-aminoluciferin, 15 μM Z-Leu-Arg-Arg-aminoluciferin, or 20 μM Z-Nle-Pro-Nle-Asp-aminoluciferin for chymotrypsin-, trypsin-, or caspase-like activity, respectively. Following a further 60 min assay incubation, luminescence was read using an EnVision 2102 Multilabel Reader (PerkinElmer, Inc) with 0.2 s per well reading time.
(§11) All data processing was performed using Microsoft Excel for Microsoft 365 software.
(§12) Nonlinear dose-response curve fitting was carried out using the Microsoft Excel add-in, XLfit (IDBS). Percentage inhibition data were either fitted to a standard 4-parameter logistic fit model (XLfit model 205; Equation 2) or a biphasic model (either XLfit model 300; Equation 3 or a custom biphasic model; Equation 4 (used in cases where the top and/or bottom parameters deviated from 100%/0% inhibition)).(2) y=A+(B−A)/1+(C/x)^D Where A = % inhibition at bottom, B = % inhibition at top, C = IC50, D = slope, x = inhibitor concentration and y = % inhibition.(3) y=(A/(1+10^(C−log(x))∗B))+((100−A)/(1+10^(D−log(x))∗B)) With A = % inhibition at midplateau, B = slope, C = log(IC50^A), D = log(IC50^B)).
(§13) All IC50 data generated were converted to pIC50 using Equation 5.

In experiment [5] the target is recombinant WT T. cruzi proteasome (caspase-like activity, β1) (Trypanosoma cruzi, UniProt V5BHX1). Description: Caspase-like activity assay (Proteasome-Glo), recombinant wild-type T. cruzi proteasome. The procedure: as §1, §2, §7, §9, §10, §11, §12, §13
The target in experiment [6] is recombinant β4^R mutant T. cruzi proteasome (caspase-like activity) (Trypanosoma cruzi, UniProt V5BHX1). The experiment in a line: Caspase-like activity assay (Proteasome-Glo), recombinant β4^R mutant T. cruzi proteasome. As to the method:
as §8, §1, §2, §3, §4, §5, §6

For `O=C(Nc1ccc(F)c(C(=O)NC2CC2)c1)c1ccc(COc2ccccc2)o1` [DDD02091966, N-(3-(cyclopropylcarbamoyl)-4-fluorophenyl)-5-(phenoxymethyl)furan-2-carboxamide], the IC50 is 34.7 nM in experiment [1]; 45.7 nM in experiment [2]; greater than 30200 nM in experiment [3]; greater than 30200 nM in experiment [4]; greater than 30200 nM in experiment [5]; greater than 30200 nM in experiment [6]. In addition, the “maximum % inhibition plateau, Chymotrypsin Assay, Wild-type” value in experiment [1] amounted to 51.6 ± 1.8%. Also, the “extent of inhibition in chymotrypsin dose-response curve, Δβ1Δβ2 mutant” value in experiment [2] (top of dose-response curve) is listed as “unable to fully inhibit”. Besides, the “inhibition of the caspase activity” value in experiment [5] (native and recombinant T. cruzi proteasomes) is reported as “no inhibition”.

Turning to `O=C(Nc1ccc(F)c(-c2cn3nc(-c4ccccc4)cnc3n2)c1)N1CCCC1` [DDD01012248], the IC50 in experiment [1] was 52.5 nM; in experiment [2] it was 41.7 nM; in experiment [3], 2000 nM; in experiment [4], greater than 30200 nM; in experiment [5], greater than 30200 nM; in experiment [6], greater than 30200 nM. Also, the “inhibition of chymotrypsin activity, recombinant WT proteasome, fixed concentration” value in experiment [1] (1 μM compound, endpoint activity vs proteasome concentration (Fig. 7A)) is “partial inhibition”. For the same compound, in experiment [1], the “maximum % inhibition plateau, Chymotrypsin Assay, Wild-type” value was 67.7 ± 4.0%. In experiment [2] (1 μM compound (Fig. 7B)), the “inhibition of chymotrypsin activity, Δβ1Δβ2 mutant, fixed concentration” value is reported as “full inhibition”. Moreover, the “inhibition of chymotrypsin activity, β4^R mutant, fixed concentration” value in experiment [3] (1 μM compound (Fig. 7C)) is reported as “no notable inhibition”. Further, the “inhibition of caspase activity, β4^R mutant, fixed concentration” value in experiment [6] (1 μM compound (Fig. S4)) is given as “did not inhibit”.
